Experimental data as given in ChEMBL document CHEMBL1124036 (J Med Chem, 1988).

Tests used:
[1] = system: Vaccinia virus; assay: Virus rating on vaccinia virus measured as the degree of inhibition of virus induced cytopathogenic effect in L929 cells; format: functional, Orthopoxvirus vaccinia
[2] = system: Vaccinia virus; assay: The minimum inhibitory concentration required for 50% inhibition of vaccinia virus induced cytopathogenic effect in L929 cells; G indicates CPE reduction <50%; format: functional, organism-based; conditions: Orthopoxvirus vaccinia

| Structure (SMILES) | Virus rating [1] | MIC50 [2] |
| --- | --- | --- |
| Nc1nc(Cl)nc2c1ncn2C1O[C@H](CO)[C@H](O)[C@H]1Cl (some centres undefined) | 0.7 |  |
| Nc1nc(F)nc2c1ncn2C1O[C@H](CO)[C@H](O)[C@H]1N (some centres undefined) | 0.7 |  |
| Nc1nc(Cl)nc2c1ncn2C1O[C@H](CO)[C@H](O)[C@H]1N (some centres undefined) | 0.6 | CPE reduction <50% |
| Nc1nc(Cl)nc2c1ncn2C1O[C@H](CO)[C@H](O)[C@H]1I (some centres undefined) | 0 |  |
| Nc1nc(F)nc2c1ncn2C1O[C@H](CO)[C@H](O)[C@H]1Cl (some centres undefined) | 0.6 |  |
| [N-]=[N+]=N[C@H]1C(n2cnc3c(N)nc(Cl)nc32)O[C@H](CO)[C@@H]1O (some centres undefined) | 0.8 |  |
| Nc1nc(Cl)nc2c1ncn2C1O[C@H](CO)[C@H](O)[C@H]1Br (some centres undefined) | 0.4 |  |
| [N-]=[N+]=N[C@H]1C(n2cnc3c(N)nc(F)nc32)O[C@H](CO)[C@@H]1O (some centres undefined) | 2.4 |  |
